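96-well plates; 48 h exposure; 5 concentrations. Endpoints by linear interpolation between flanking doses. Not reached: highest tested concentration assigned. At the GI50, growth is halved.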 The source made the active and inactive calls. Rule as the data show it: active = GI50 up to about 1.1 µM and inactive = higher.

Holding throughout (assay): NCI tumour cell line growth inhibition, 48 h
Test [1] relates to KM12.
The test system of test [2] is OVCAR-8.
Test [3] concerns RXF 393.
The test system of test [4] is K562.
Test [5] has as its system LOX IMVI.
Test [6] relates to NCI/ADR-RES.
Test [7] concerns HCT-116.
The test system of test [8] is SF-295.
Test [9] deals with MDA-MB-231.
The test system of test [10] is SN12C.
Test [11] relates to CCRF-CEM.
The test system of test [12] is SW-620.
The test system of test [13] is PC-3.
For test [14], the system named is NCI-H226.
Test [15] relates to CAKI-1.
For test [16], the system named is SNB-19.
Test [17] has as its system SK-MEL-28.
The test system of test [18] is HOP-62.
The subject of test [19] is SR.
The subject of test [20] is HL-60.

In the case of `CC(=O)c1ccc(O)c(CN(C2CCCCC2)C2CCCCC2)c1O`, the GI50 in test [1], in test [2], in test [3], in test [4], in test [5] and in [6] was > 100 µM (inactive) throughout. The GI50 in test [7] was > 100 µM (inactive); in [8] it was > 100 µM (inactive); in test [9], > 100 µM (inactive); in [10], > 100 µM (inactive); in test [11] it was 0.0611 µM (active); in test [12] it was 81.1 µM (inactive). Also, the GI50 in test [13], in test [14], in [15], in [16], in [17] and in [18] was > 100 µM (inactive) in each case.
For the compound `O=C1CSC2(CCN(CCCN3c4ccccc4Sc4ccc(Cl)cc43)CC2)N1`, the GI50 in [1] was 6.65 µM (inactive); in test [2], 11.3 µM (inactive); in [3], 3.07 µM (inactive); in test [4], 3.79 µM (inactive); in [5], 3.88 µM (inactive); in [6] it was 4.9 µM (inactive). Moreover, the GI50 was 6.14 µM (inactive) in test [7]; 10.3 µM (inactive) in test [8]; 7.06 µM (inactive) in test [9]; 10.8 µM (inactive) in test [10]; 11.2 µM (inactive) in test [12]; 5.37 µM (inactive) in test [13]. Moreover, the GI50 was 17.6 µM (inactive) in [14]; 12.5 µM (inactive) in test [15]; 12.1 µM (inactive) in test [16]; 15 µM (inactive) in test [17]; 12.9 µM (inactive) in [18].
For `ON=C(CC(O)(C(F)(F)Cl)C(F)(F)Cl)CC(O)(C(F)(F)Cl)C(F)(F)Cl`, the GI50 is 8.38 µM (inactive) in test [1]; 6.9 µM (inactive) in [2]; 2.7 µM (inactive) in [3]; > 10 µM (inactive) in test [4]; 5.26 µM (inactive) in test [5]; 4.69 µM (inactive) in [6]. For the same compound, the GI50 is 3.29 µM (inactive) in test [7]; 4.58 µM (inactive) in test [19]; 4.1 µM (inactive) in [20]; 7.89 µM (inactive) in test [8]; 4.67 µM (inactive) in test [10]; 5.56 µM (inactive) in test [11]. In addition, the GI50 in test [12] was > 10 µM (inactive); in [13], 3.33 µM (inactive); in test [14], 4.07 µM (inactive); in test [15] it was 5.46 µM (inactive); in [16], 4.25 µM (inactive); in [17], 6.27 µM (inactive). The GI50 in test [18] is 2.84 µM (inactive).
For the compound `CC(C)(/C=N/O)/[N+]([O-])=C/c1ccccc1`, the GI50 in test [1], in [2], in test [3], in test [5], in [6] and in test [7] was > 100 µM (inactive) throughout. In addition, the GI50 in test [8], in test [9], in [10], in test [12], in test [13] and in test [14] was > 100 µM (inactive) throughout. Further, the GI50 in test [15], in test [16], in test [17] and in test [18] was > 100 µM (inactive) each time.
As for `Cc1ccc2c(n1)C(=O)c1ccccc1C2=O`, the GI50 was 30.1 µM (inactive) in test [1]; 26.7 µM (inactive) in test [2]; 24.8 µM (inactive) in test [3]; 30.2 µM (inactive) in test [4]; 17.6 µM (inactive) in [5]; 24.4 µM (inactive) in test [6]. The GI50 in [7] was 22.9 µM (inactive); in test [20], 15.4 µM (inactive); in [8], 25.8 µM (inactive); in test [9], 23.3 µM (inactive); in test [10], 26.4 µM (inactive); in [11] it was 37.7 µM (inactive). Besides, the GI50 in test [12] was 31.7 µM (inactive); in test [13], 23.9 µM (inactive); in [14], 38 µM (inactive); in test [15] it was 39.2 µM (inactive); in [16], 26.2 µM (inactive); in test [17], 51.5 µM (inactive). The GI50 in test [18] was 38 µM (inactive).
For `COc1ccc(N2CC(=O)N(C(=O)COc3ccc(OCC(=O)N4C(=O)CN(c5ccc(OC)cc5)C4=S)cc3)C2=S)cc1`, the GI50 is 39.1 µM (inactive) in test [1]; > 100 µM (inactive) in test [3]; 38.8 µM (inactive) in test [4]; > 100 µM (inactive) in [6]; 24 µM (inactive) in [7]; > 100 µM (inactive) in test [8]. Moreover, the GI50 in [9], in [10], in [12], in test [13], in test [14] and in [15] was > 100 µM (inactive) in each case. The GI50 in test [16] and in [17] was > 100 µM (inactive) in each case.
In the case of `N#C/C(C(=O)Nc1ccccc1)=C(/N)N1CCOCC1`, the GI50 in test [1], in test [2], in test [4], in test [5], in [6] and in [7] was > 100 µM (inactive) each time. Besides, the GI50 in [19], in [8], in test [10], in test [11], in [12] and in test [13] was > 100 µM (inactive) in each case. For the same compound, the GI50 in test [14], in test [15], in test [16], in [17] and in [18] was > 100 µM (inactive) each time.
Regarding `CC1(C)OC2CN(C(=O)OCc3ccccc3)C(CO)C2O1` (stereo unspecified), the GI50 in test [1], in test [2], in [3], in [4], in [5] and in test [6] was > 100 µM (inactive) throughout. Moreover, the GI50 in [7], in test [20], in test [8], in test [9], in test [10] and in test [12] was > 100 µM (inactive) each time. Moreover, the GI50 in test [13], in [14], in test [15], in test [16], in test [17] and in [18] was > 100 µM (inactive) in each case.
`O=C(c1ccc(Cl)cc1)N(C(=S)OC12CC3CC(CC(C3)C1)C2)c1ccccc1`: the GI50 in test [1] was 39.1 µM (inactive); in test [2], 39.2 µM (inactive); in test [3] it was 99.8 µM (inactive); in [4], 29.8 µM (inactive); in test [6], 36.5 µM (inactive); in test [7], 33.5 µM (inactive). In addition, the GI50 was 17 µM (inactive) in [20]; 36.8 µM (inactive) in [8]; 29.4 µM (inactive) in [9]; 45.2 µM (inactive) in test [10]; 16.3 µM (inactive) in test [11]; 34.4 µM (inactive) in [12]. The GI50 in test [13] is 34 µM (inactive); in test [14], 30.9 µM (inactive); in test [15], 35.2 µM (inactive); in test [16] it was 29.6 µM (inactive); in test [17] it was > 100 µM (inactive); in test [18], 45.5 µM (inactive).
Consider `CC[C@H](CC[C@@H](C)[C@H]1CC[C@H]2[C@@H]3CC=C4C[C@@H](O)CC[C@]4(C)[C@H]3CC[C@]12C)C(C)C` [BETA-SITOSTEROL], for which the GI50 in test [1], in [2], in test [4], in test [5], in [6] and in test [7] was > 100 µM (inactive) in each case. In addition, the GI50 in test [20] was > 10 µM (inactive); in test [8], > 100 µM (inactive); in [9] it was > 100 µM (inactive); in [10], > 100 µM (inactive); in test [11] it was > 100 µM (inactive); in [12], > 100 µM (inactive). Also, the GI50 in [13], in [14], in test [15], in test [16], in [17] and in [18] was > 100 µM (inactive) throughout.
For the compound `CNc1c2c(c3nc4ccccc4c4c3c1N=C4)NCCC2=O` [PLAKINIDINE A], the GI50 in [1] is 4.79 µM (inactive); in test [2], 2.38 µM (inactive); in test [3], 5.41 µM (inactive); in [4], 2.43 µM (inactive); in [6] it was 2.83 µM (inactive); in [7] it was 1.77 µM (inactive). Moreover, the GI50 in test [8] was 4.5 µM (inactive); in [9], 3.86 µM (inactive); in [10], 4.22 µM (inactive); in [11], 1.9 µM (inactive); in test [12] it was 2.44 µM (inactive); in test [13], 3.46 µM (inactive). The GI50 in test [14] was 7.43 µM (inactive); in test [15], 4.69 µM (inactive); in test [16], > 10 µM (inactive); in test [17], > 10 µM (inactive); in test [18], 8.59 µM (inactive).

Source of the values: ChEMBL document CHEMBL1201862, “PubChem BioAssay data set” (2004).
